Reference: patent US8586747B2, “3,3-dimethyl tetrahydroquinoline derivatives” (Hoffmann-La Roche Inc., priority 2010, dated 2013)

What follows are molecules tested on AMP-activated protein kinase (AMPK) (assay: ADP Quest assay for AMPK activators). Conditions: fold of AMPK activation to phosphorylate SAMS peptide without and with an activator at the concentration of 30 µM.
Assay type: biochemical
Design: key: fold AMPK activation with vs without activator at 30 µM
Description: ADP Quest™ Assay for AMPK Activators
This method evaluates AMP-activated protein kinase (AMPK) activity through detecting the accumulation of ADP product using an ADP Quest kit and determining the E30 values of the small molecular AMPK activators. ADP Quest kit (DiscoveRx, Fremont, Calif.) is stored at −20° C. before use. Before an experiment, thaw the kit (include assay buffer, ADP standard solution, reagent A and reagent B) and equilibrate to room temperature. Dispense the ADP Quest reagents into single-use aliquots and store at −20° C. The compound concentrations typically range from 0 µM to 100 µM by 2-fold dilution. AMP concentrations range from […] to 1 mM as the reference control. In an assay, thaw and equilibrate the assay buffer, reagent A and reagent B to room temperature for 30 minutes prior to use. Mix ATP, SAMS peptide substrate and compound, and place them into the 384-well assay plate. Add reagent A and B based on the assay kit protocol. Incubate the assay plate at room temperature for 30 minutes after addition the mixture followed by the addition of AMPK protein (Invitrogen, CA) to initiate the AMPK phosphorylation reaction. At the same time, reactions with AMPK activator AMP in the absence of enzyme is included as blank control. The reaction fluorescence signal is monitored and recorded on Envision in kinetic mode with the excitation wavelength of 530 nm and emission wavelength of 590 nm. The E30 value, defined as the fold of AMPK activation to phosphorylate SAMS peptide without and with an activator at the concentration of 30 µM, is calculated and analyzed using Prism 5.0.

| E30 | Structure (SMILES) |
| --- | --- |
| 1.5 | CC(C)C1COC(=O)N1c1cccc(C2Nc3ccc(C(=O)O)cc3CC2(C)C)c1 (stereo in doubt) [Example 119, 2-[3-((S)-4-Isopropyl-2-oxo-oxazolidin-3-yl)-phenyl]-3,3-dimethyl-1,2,3,4-tetrahydro-quinoline-6-carboxylic acid] |
| 1.34 | CC1(C)Cc2cc(C(=O)O)ccc2NC1c1cccc(N2C(=O)OCC2Cc2ccccc2)c1 (stereo in doubt) [Example 124, 2-[3-((S)-4-Benzyl-2-oxo-oxazolidin-3-yl)-phenyl]-3,3-dimethyl-1,2,3,4-tetrahydro-quinoline-6-carboxylic acid] |
| 1.26 | CC1(C)Cc2cc(C(=O)O)ccc2NC1c1cccc(N2C(=O)OCC2Cc2ccccc2)c1 (stereo in doubt) [Example 127, 2-[3-((R)4-Benzyl-2-oxo-oxazolidin-3-yl)-phenyl]-3,3-dimethyl-1,2,3,4-tetrahydro-quinoline-6-carboxylic acid] |
| 1.43 | CC1(C)Cc2cc(C(=O)O)ccc2NC1c1cccc(NC(=O)NCc2ccccc2)c1 (stereo not shown) [Example 1, 2-[3-(3-Benzyl-ureido)-phenyl]-3,3-dimethyl-1,2,3,4-tetrahydro-quinoline-6-carboxylic acid] |
| 1.42 | CC1(C)Cc2cc(Cl)cc(C(=O)NS(=O)(=O)C3CC3)c2NC1c1cccc(NC(=O)c2cnccn2)c1 (stereo not shown) [Example 2, Pyrazine-2-carboxylic acid [3-(6-chloro-8-cyclopropanesulfonylaminocarbonyl-3,3-dimethyl-1,2,3,4-tetrahydro-quinolin-2-yl)-phenyl]-amide] |
| 1.33 | CC1(C)Cc2cc(C(=O)O)ccc2NC1c1cccc(NC(=O)c2cccnc2)c1 (stereo not shown) [Example 3, 3,3-Dimethyl-2-{3-[(pyridine-3-carbonyl)-amino]-phenyl}-1,2,3,4-tetrahydro-quinoline-6-carboxylic acid] |
| 1.33 | CC1(C)Cc2cc(C(=O)O)ccc2NC1c1cccc(NC(=O)c2ccccn2)c1 (stereo not shown) [Example 4, 3,3-Dimethyl-2-{3-[(pyridine-2-carbonyl)-amino]-phenyl}-1,2,3,4-tetrahydro-quinoline-6-carboxylic acid] |
| 1.32 | CC1(C)Cc2cc(C(=O)O)ccc2NC1c1cccc(NC(=O)c2cnccn2)c1 (stereo not shown) [Example 5, 3,3-Dimethyl-2-{3-[(pyrazine-2-carbonyl)-amino]-phenyl}-1,2,3,4-tetrahydro-quinoline-6-carboxylic acid] |
| 1.31 | CC1(C)Cc2cc(C(=O)O)ccc2NC1c1cccc(NC(=O)c2cccc(F)c2)c1 (stereo not shown) [Example 6, 2-[3-(3-fluoro-benzoylamino)-phenyl]-3,3-dimethyl-1,2,3,4-tetrahydro-quinoline-6-carboxylic acid] |
| 1.31 | CC1(C)Cc2cc(C(=O)O)ccc2NC1c1cccc(C(=O)O)c1 (stereo not shown) [Example 7, 2-(3-Carbonyl-phenyl)-3,3-dimethyl-1,2,3,4-tetrahydro-quinoline-6-carboxylic acid] |
| 1.29 | CC1(C)Cc2cc(C(=O)NS(C)(=O)=O)ccc2NC1c1cccc(N2CCOCC2)c1 (stereo not shown) [Example 8, N-[3,3-dimethyl-2-(3-morpholin-4-yl-phenyl)-1,2,3,4-tetrahydro-quinoline-6-carbonyl]-methanesulfonamide] |
| 1.28 | CC1(C)Cc2cc(C(=O)NS(C)(=O)=O)ccc2NC1c1cccc(C(=O)Nc2ccccc2)c1 (stereo not shown) [Example 9, 3-(6-Methanesulfonylaminocarbonyl-3,3-dimethyl-1,2,3,4-tetrahydro-quinolin-2-yl)-N-phenyl-benzamide] |
| 1.27 | CC(C)S(=O)(=O)NC(=O)c1ccc2c(c1)CC(C)(C)C(c1cccc(N3CCOCC3)c1)N2 (stereo not shown) [Example 10, Propane-2-sulfonic acid [3,3-dimethyl-2-(3-morpholin-4-yl-phenyl)-1,2,3,4-tetrahydro-quinoline-6-carbonyl]-amide] |
| 1.25 | CC1(C)Cc2cc(C(=O)NS(C)(=O)=O)ccc2NC1c1cccc(NC(=O)c2cnccn2)c1 (stereo not shown) [Example 11, Pyrazine-2-carboxylic acid [3-(6-methanesulfonylaminocarbonyl-3,3-dimethyl-1,2,3,4-tetrahydro-quinolin-2-yl)-phenyl]-amide] |
| 1.22 | CC1(C)Cc2cc(C(=O)O)ccc2NC1c1cccc(NC(=O)c2ccccc2)c1 (stereo not shown) [Example 12, 2-(3-Benzoylamino-phenyl)-3,3-dimethyl-1,2,3,4-tetrahydro-quinoline-6-carboxylic acid] |
| 1.21 | CC1(C)Cc2cc(C(=O)O)ccc2NC1c1cccc(NC(=O)Nc2cccc(F)c2)c1 (stereo not shown) [Example 13, 2-{3-[3-(3-Fluoro-phenyl)-ureido]-phenyl}-3,3-dimethyl-1,2,3,4-tetrahydro-quinoline-6-carboxylic acid] |

| E30 | Structure (SMILES) |
| --- | --- |
| 1.2 | CC1(C)Cc2cc(C(=O)O)ccc2NC1c1cccc(C(=O)Nc2ccccc2)c1 (stereo not shown) [Example 14, 3,3-Dimethyl-2-(3-phenylcarbamoyl-phenyl)-1,2,3,4-tetrahydro-quinoline-6-carboxylic acid] |
| 3.59 | CC(C)(Nc1cccc(C2Nc3ccc(C(=O)O)cc3CC2(C)C)c1)C(=O)O (stereo not shown) [Example 15, 2-[3-(1-Carboxy-1-methyl-ethylamino)-phenyl]-3,3-dimethyl-1,2,3,4-tetrahydro-quinoline-6-carboxylic acid] |
| 1.59 | CN1CCN(c2cccc(C3Nc4ccc(C(=O)O)cc4CC3(C)C)c2)C1=O (stereo not shown) [Example 16, 3,3-Dimethyl-2-[3-(3-methyl-2-oxo-imidazolidin-1-yl)-phenyl]-1,2,3,4-tetrahydro-quinoline-6-carboxylic acid] |
| 1.45 | CC1(C)Cc2cc(C(=O)O)ccc2NC1c1cccc(N2CCNC2=O)c1 (stereo not shown) [Example 17, 3,3-Dimethyl-2-[3-(2-oxo-imidazolidin-1-yl)-phenyl]-1,2,3,4-tetrahydro-quinoline-6-carboxylic acid] |
| 1.41 | CC1(C)Cc2cc(C(=O)O)ccc2NC1c1cccc(N2CC(=O)NCC2=O)c1 (stereo not shown) [Example 18, 2-[3-(2,5-Dioxo-piperazin-1-yl)-phenyl]-3,3-dimethyl-1,2,3,4-tetrahydro-quinoline-6-carboxylic acid] |
| 1.38 | CC1(C)Cc2cc(C(=O)O)ccc2NC1c1cccc(N2CC(=O)NC2=O)c1 (stereo not shown) [Example 19, 2-[3-(2,4-Dioxo-imidazolidine-1-yl)-phenyl]-3,3-dimethyl-1,2,3,4-tetrahydro-quinoline-6-carboxylic acid] |
| 1.25 | CC1(C)Cc2cc(C(=O)O)ccc2NC1c1cccc(NC(=O)c2ccc(F)cc2)c1 (stereo not shown) [Example 20, 2-[3-(4-Fluoro-benzoylamino)-phenyl]-3,3-dimethyl-1,2,3,4-tetrahydro-quinoline-6-carboxylic acid] |
| 1.42 | CC1(C)Cc2cc(C(=O)O)ccc2NC1c1cccc(NC(=O)N2CCOCC2)c1 (stereo not shown) [Example 21, 3,3-Dimethyl-2-{3-[(morpholine-4-carbonyl)-amino]-phenyl}-1,2,3,4-tetrahydro-quinoline-6-carboxylic acid] |
| 1.39 | CC1(C)Cc2cc(C(=O)O)ccc2NC1c1cccc(NC(=O)N2CCCCC2)c1 (stereo not shown) [Example 22, 3,3-Dimethyl-2-{3-[(piperidine-1-carbonyl)-amino]-phenyl}-1,2,3,4-tetrahydro-quinoline-6-carboxylic acid] |
| 1.32 | CN(CC(=O)O)C(=O)c1ccc2c(c1)CC(C)(C)C(c1cccc(N3CCOCC3)c1)N2 (stereo not shown) [Example 23, {[3,3-Dimethyl-2-(3-morpholin-4-yl-phenyl)-1,2,3,4-tetrahydro-quinoline-6-carboxyl]-methyl-amino}-acetic acid] |
| 1.3 | CC1(C)Cc2cc(C(=O)N3CCC[C@H]3C(=O)O)ccc2NC1c1cccc(N2CCOCC2)c1 (stereo partly shown) [Example 24, 1-[3,3-Dimethyl-2-(3-morpholin-4-yl-phenyl)-1,2,3,4-tetrahydro-quinoline-6-carboxyl]-pyrrolidine-2-carboxylic acid] |
| 1.29 | CN(C)S(=O)(=O)Nc1cccc(C2Nc3ccc(C(=O)O)cc3CC2(C)C)c1 (stereo not shown) [Example 25, 2-(3-(N,N-dimethylsulfamoylamino)phenyl)-3,3-dimethyl-1,2,3,4-tetrahydroquinoline-6-carboxylic acid] |
| 1.27 | CC1(C)Cc2cc(C(=O)O)ccc2NC1c1cccc(N2CCN(c3ccccc3)C2=O)c1 (stereo not shown) [Example 26, 3,3-Dimethyl-2-[3-(2-oxo-3-phenyl-imidazolidin-1-yl)-phenyl]-1,2,3,4-tetrahydro-quinoline-6-carboxylic acid] |
| 1.24 | CN1CCN(C(=O)Nc2cccc(C3Nc4ccc(C(=O)O)cc4CC3(C)C)c2)CC1 (stereo not shown) [Example 27, 3,3-Dimethyl-2-{3-[(4-methyl-piperazine-1-carbonyl)-amino]-phenyl}-1,2,3,4-tetrahydro-quinoline-6-carboxylic acid] |
| 2.5 | CC(C)(Nc1cccc(C2Nc3ccc(C(=O)NS(C)(=O)=O)cc3CC2(C)C)c1)C(=O)O (stereo not shown) [Example 28, 2-[3-(6-Methanesulfonylaminocarbonyl-3,3-dimethyl-1,2,3,4-tetrahydro-quinolin-2-yl)-phenylamino]-2-methyl-propionic acid] |
